The record followed here is patent publication US8815829B2, “3′-azido purine nucleotide prodrugs for treatment of viral infections” (priority 2008, dated 2014).

The test system of assay [1] is HIV-1 AZT3 (M41L/L210W/T215Y). As to the kind of experiment: microbe, parasite or virus in culture. The assay is classed as cell-based. Conditions: for EC50: Human immunodeficiency virus 1, P4/R5 cells, mean ± standard deviation. Here is the method:
(§1) In a 96-well plate, two- or three-fold serial dilutions of an inhibitor were added to P4/R5 cells in triplicate. […] At 48 h post-infection, a cell lysis buffer and luminescent substrate (Gal-Screen; Tropix/Applied Biosystems) was added to each well, and relative light unit values were determined using a luminometer (ThermoLabSystems, Waltham, Mass.).
(§2) Virus stocks were prepared as described above. Drug susceptibility assays were performed using the single- and multiple-replication-cycle assays also described above.

Assay [2] has as its system HIV-1 AZT2 (D67N/K70R/T215F/K219Q). As to the kind of experiment: microbe, parasite or virus in culture. The format is cell-based. The note with it: for EC50: Human immunodeficiency virus 1, P4/R5 cells, mean ± standard deviation. As for the experimental part: as §1, §2
The next assay deals with HIV-1 K65R. The assay can be described thus: microbe, parasite or virus in culture. The assay is classed as cell-based. Conditions: for EC50: Human immunodeficiency virus 1, P4/R5 cells, mean ± standard deviation. As for the experimental part:
as §1, §2

Assay [3] concerns HIV-1 AZT9 (M41L/D67N/K70R/L210W/T215Y/K219Q). The assay can be described thus: microbe, parasite or virus in culture. The format is cell-based. Conditions: for EC50: Human immunodeficiency virus 1, P4/R5 cells, mean ± standard deviation. Here is the method: as §1, §2
Assay [4] relates to HIV-1 T69SSS (M41L/T69SSS/L210W/T215Y). As to the kind of experiment: microbe, parasite or virus in culture. The note with it: Human immunodeficiency virus 1, P4/R5, P4/R5 cells, mean ± standard deviation. The assay is classed as cell-based. As for the experimental part:
as §1, §2

A further assay relates to HIV-1 M184V. As to the kind of experiment: microbe, parasite or virus in culture. The assay is classed as cell-based. Conditions: for EC50: Human immunodeficiency virus 1, P4/R5 cells, mean ± standard deviation. As for the experimental part:
as §1, §2

Assay [5] deals with HIV-1 Q151Mc (A62V/V75I/F77L/F116Y/Q151M). As to the kind of experiment: microbe, parasite or virus in culture. The assay is classed as cell-based. Conditions: mean ± standard deviation. As for the experimental part: as §1, §2
Another assay deals with HIV-1 L74V. The assay can be described thus: microbe, parasite or virus in culture. The format is cell-based. The note with it: for EC50: Human immunodeficiency virus 1, P4/R5 cells, mean ± standard deviation. As for the experimental part: as §1, §2
In assay [6] the test system is HIV-1 AZT7 (M41L/D67N/K70R/T215F/K219Q). The assay can be described thus: microbe, parasite or virus in culture. The assay is classed as cell-based. Conditions: for EC50: Human immunodeficiency virus 1, P4/R5 cells, mean ± standard deviation. Here is the method:
as §1, §2

The test system of the next assay is PBM cells. The assay can be described thus: Cytotoxicity assay in PBM cells. The format is cell-based, human.
For the next assay, the system named is HIV-1/LAI. As to the kind of experiment: Anti-HIV-1 assay in PBM cells. The assay is classed as cell-based. As for the experimental part: Stock solutions (20-40 mM) of the compounds were prepared in sterile DMSO and then diluted to the desired concentration in growth medium. Cells were infected with the prototype HIV-1LAI at a multiplicity of infection of 0.01. Virus obtained from the cell supernatant was quantified on day 6 after infection by a reverse transcriptase assay using (rA)n·(dT)12-18 as template-primer. […] The antiviral EC50 and EC90 were obtained from the concentration-response curve using the median effective method described previously (see Chou T.-C. & Talalay P. Adv. Enzyme Regul. 1984, 22, 27-55; Belen'kii M. S. & Schinazi R. F. Antiviral Res. 1994, 25, 1-11).

Another assay relates to WT (LAI) HIV-1. As to the kind of experiment: Single cycle assay in P4/R5 cells, WT HIV-1. The format is cell-based. Here is the method: as §1, §2
A further assay has as its system HIV-2/pROD10. As to the kind of experiment: HIV-2 drug susceptibility in PBM cells. The note with it: Human immunodeficiency virus 2, PBMC. The assay is classed as cell-based.
The test system of a further assay is 151M complex RT. As to the kind of experiment: Studies with purified RT: inhibition of 151M complex RT. The assay is classed as biochemical, HIV-1.
The next assay addresses T1, Wild-type (WT) HIV-1 RT (Human immunodeficiency virus type 1 group M subtype B, UniProt P03367).
T1 construct: HIV-1 RT (xxLAI background); inferred from vector p6HRT-PROT and the cited metal chelate purification; made in house; host or cells: bacteria (p6HRT-PROT expression vector)
The assay can be described thus: Inhibition of HIV-1 RT DNA synthesis by 6-modified-AZG analogs. The format is biochemical. Conditions: DNA/DNA template/primer, 200 nM WT RT, 40 min. As for the experimental part:
Wild-type (WT) HIV-1 RT was purified as described previously (1, 2). […] The 214 nucleotide (nt) DNA template, corresponding to the HIV-1 PBS region, was prepared as described previously (4). Reactions were initiated by the addition of 200 nM WT RT, incubated for 40 min at 37° C. and then quenched using 20 μL of gel loading buffer (98% deionized formamide containing 1 mg/mL each of bromophenol blue and xylene cyanol). […] Gels were analyzed using phosphorimaging with a GS525 Molecular Imager and Quantity One Software (Biorad Laboratories, Inc., Hercules, Calif.).

For the next assay, the system named is NRTI-resistant HIV-1. As to the kind of experiment: Cross-resistance against a broad panel of NRTI-resistant HIV-1. The format is cell-based.
A further assay has as its system Vero cells. As to the kind of experiment: Cytotoxicity assay in Vero cells. The assay is classed as cell-based. Conditions: read-out: Vero IC50; Tables 2-4.
The test system of the next assay is CEM cells. The assay can be described thus: Cytotoxicity assay in CEM cells. The assay is classed as cell-based, human. The note with it: Tables 2-4; read-out: CEM IC50.
Setting [7] is: Human immunodeficiency virus 1, P4/R5, P4/R5 cells.
The mark [8] stands for this setting: Human immunodeficiency virus 1, P4/R5, read-out: EC50 WT (LAI), P4/R5 cells, mean ± standard deviation.

Each structure is given as a SMILES string. Like-named read-outs stand apart in the source and are kept apart here.

By IC50 is commonly meant the point on the concentration scale where inhibition reaches its midpoint. With `Cc1cn([C@H]2C[C@H](N=[N+]=[N-])[C@@H](CO)O2)c(=O)[nH]c1=O` [AZT, 3′-azido-3′-deoxythymidine, reference compound], the EC50 was 2850 ± 880 nM in [1]; 11100 ± 4300 nM in assay [2]; 163 ± 60 nM in the assay on HIV-1 K65R; greater than 90000 nM in assay [3]; greater than 90000 nM in [4]; 95 ± 40 nM in the assay on HIV-1 M184V. Besides, the EC50 in assay [5] (setting [7]) is greater than 90000 nM; with HIV-1 L74V it was 156 ± 30 nM; in [6] it was greater than 90000 nM; in the assay on WT (LAI) HIV-1 (setting [8]), 126 ± 40 nM; in the assay on HIV-2/pROD10, 7.6 nM. In addition, the IC50 in the assay with PBM cells (Homo sapiens, PBMC, Table 5, read-out: Toxicity IC50 PBM) was greater than 100000 nM. The EC90 with HIV-1/LAI (Human immunodeficiency virus 1, PBMC, PBM cells, read-out: HIV-1/LAI (PBM) EC90) is 20 nM; with HIV-2/pROD10, 64 nM.
For `[N-]=[N+]=N[C@H]1C[C@H](n2cnc3c(N)nc(N)nc32)O[C@@H]1COP(=O)(O)OP(=O)(O)OP(=O)(O)O` [RS-667-TP], the “potency against 151M complex RT” value in the assay on 151M complex RT is “less potent than AZG-TP”. The “potency of inhibition of HIV-1 RT DNA synthesis (rank order)” value at Wild-type (WT) HIV-1 RT is listed as “most potent analog”.
For the compound `CCOC(=O)[C@H](C)NP(=O)(OC[C@H]1O[C@@H](n2cnc3c(N)nc(N)nc32)CC1N=[N+]=[N-])Oc1ccccc1` (stereo partly drawn) [RS-788], the “cross-resistance profile compared to AZD, AZG or AZT” value with NRTI-resistant HIV-1 is given as “superior cross-resistance profile”. Besides, the IC50 is greater than 100000 nM in the assay with Vero cells; 38300 nM with PBM cells (Tables 2-4, read-out: PBM IC50); 30400 nM in the assay with CEM cells. Besides, in assay [1] (EC50 mutant / EC50 WT), the “Fold-change versus WT, AZT3” value is “(1.6) fold”. In addition, the EC50 in assay [1] was determined as 189 ± 20 nM; in assay [2], 274 ± 70 nM; with HIV-1 K65R, 106 ± 70 nM; in assay [3], 253 ± 90 nM; in assay [4], 440 nM; in the assay with HIV-1 M184V, 48 ± 30 nM. Further, the EC50 in assay [5] (setting [7]) was found to be 280 nM; in assay [5] (P4/R5 cells), 277 ± 70 nM; with HIV-1 L74V, 73 ± 20 nM; in [6] it was 270 ± 50 nM; with HIV-1/LAI (Tables 2-4, n = 3 for the MP prodrugs, read-out: HIV EC50), 9 nM; in the assay with WT (LAI) HIV-1 (setting [8]), 120 nM. Also, the EC50 in the assay with WT (LAI) HIV-1 (read-out: EC50 WT (LAI), P4/R5 cells, mean ± standard deviation) came to 118 ± 60 nM. Further, in assay [2] (EC50 mutant / EC50 WT), the “Fold-change versus WT, AZT2” value is given as “(2.3) fold”. Besides, in the assay on HIV-1 K65R (EC50 mutant / EC50 WT), the “Fold-change versus WT, K65R” value is reported as “(0.9) fold”. For the same compound, the “Fold-change versus WT, AZT9” value in assay [3] (EC50 mutant / EC50 WT) was “(2.1) fold”. Also, in the assay with HIV-1 M184V (EC50 mutant / EC50 WT), the “Fold-change versus WT, M184V” value was “(0.4) fold”. Besides, the “Fold-change versus WT, L74V” value with HIV-1 L74V (EC50 mutant / EC50 WT) is listed as “(0.6) fold”. Moreover, in assay [6] (EC50 mutant / EC50 WT), the “Fold-change versus WT, AZT7” value was “(2.3) fold”. Besides, the EC90 in the assay with HIV-1/LAI (Tables 2-4, n = 3 for the MP prodrugs, read-out: HIV EC90) came to 110 nM. In addition, in the assay on WT (LAI) HIV-1, the “fold more potent against WT HIV-1 compared to either RS-667 or RFS-457” value is roughly 10 fold.
